Experimental data: patent US20040038201A1, “Diagnostic and therapeutic applications for biomarkers of infection” (Whitehead Institute for Biomedical Research, priority 2002, published 2004)

How the values were obtained:
human macrophages [1] = assay: Differential (Gram-negative/TLR4-specific) macrophage gene expression after bacterial components or cytokines, HuFL GeneChips; assay type: cell-based; conditions: for induction of the TLR4-induced core cluster of genes by cytokines: IFNs at 1000 units/mL; for expression pattern of the 101 genes differentially regulated by Gram-negative versus Gram-positive bacteria: LPS 1 μg/mL, LTA 10 μg/mL, MDP 100 μg/mL, fMLP 100 nM
mycobacterial infection = conditions: supplemental IL-12; cited from earlier work
[2] = system: M. abscessus infection, M. tuberculosis infection; conditions: exogenous IL-12 therapy; cited from earlier work
human macrophages [3] = assay: I-TAC ELISA of macrophage supernatants; assay type: cell-based; conditions: for I-TAC production by macrophages in response to IFNs: 100 units/mL IFN; for I-TAC production by macrophages in response to bacterial components: supernatants after 24 hours, LPS 1 μg/mL, MDP 100 μg/mL
TLR-4 = target: T1, TLR-4 (Homo sapiens, UniProt O00206+Q9Y6Y9); assay: TLR-4 antagonist (RSLA) pretreatment, TNF-alpha ELISA of stimulated macrophages; assay type: cell-based; conditions: 1 μg/mL RSLA, 30 minutes pretreatment; 10 μg/mL hsp70
T1 construct: endogenous in cells; host or cells: human monocyte-derived macrophages (primary)
T1 sequence (O00206 24-839): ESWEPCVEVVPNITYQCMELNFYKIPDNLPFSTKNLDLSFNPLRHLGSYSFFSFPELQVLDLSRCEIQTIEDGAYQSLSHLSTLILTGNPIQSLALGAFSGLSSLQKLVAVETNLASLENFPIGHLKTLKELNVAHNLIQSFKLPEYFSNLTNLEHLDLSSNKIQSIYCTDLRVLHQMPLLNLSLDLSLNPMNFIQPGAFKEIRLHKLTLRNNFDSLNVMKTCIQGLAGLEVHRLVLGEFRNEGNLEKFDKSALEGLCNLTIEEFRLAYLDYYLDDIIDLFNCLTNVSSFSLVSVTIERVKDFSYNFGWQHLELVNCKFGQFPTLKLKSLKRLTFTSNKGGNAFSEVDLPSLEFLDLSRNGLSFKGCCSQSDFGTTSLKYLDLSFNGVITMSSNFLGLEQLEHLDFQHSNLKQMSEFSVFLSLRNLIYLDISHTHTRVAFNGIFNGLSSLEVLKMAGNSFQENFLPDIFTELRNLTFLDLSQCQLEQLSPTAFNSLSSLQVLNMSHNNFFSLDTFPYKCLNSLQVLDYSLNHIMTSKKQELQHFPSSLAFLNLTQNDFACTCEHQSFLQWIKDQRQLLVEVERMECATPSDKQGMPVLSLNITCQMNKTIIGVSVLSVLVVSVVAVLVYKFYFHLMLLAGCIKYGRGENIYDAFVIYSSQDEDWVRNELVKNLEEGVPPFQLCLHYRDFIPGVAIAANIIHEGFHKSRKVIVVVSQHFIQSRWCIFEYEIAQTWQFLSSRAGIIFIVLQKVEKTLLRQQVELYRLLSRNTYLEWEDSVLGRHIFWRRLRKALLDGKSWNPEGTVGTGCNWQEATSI
T1 sequence (Q9Y6Y9 17-160 limits assumed): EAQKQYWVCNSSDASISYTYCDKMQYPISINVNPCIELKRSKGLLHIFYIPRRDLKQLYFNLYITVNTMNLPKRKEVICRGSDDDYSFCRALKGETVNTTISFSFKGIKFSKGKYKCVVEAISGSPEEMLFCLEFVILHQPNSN
Procedure: FIG. 9 is a graphical representation showing a specific TLR-4 antagonist inhibits production of TNF-alpha by hsp70. Monocytes were plated at […] in 96-well Primaria plates and matured to macrophages as described. Cells were washed with Hank's Balanced Salt Solution incubated overnight in DMEM, 1% human serum, and pretreated for 30 minutes at 37° C. with 1 μg/mL Rhodobacter sphaeroides lipid A (RSLA). RSLA is a specific antagonist of TLR-4. Cells were then stimulated with 0.1 MOI E. coli sd-4, 1 μg/mL LPS, or 10 μg/mL hsp70 to duplicate, and culture media was collected at 0, 2, 6, and 12 hours. ELISAs were performed using manufacturer's protocols.

human macrophages [4] = assay type: cell-based; conditions: 24-hour time course; LPS 1 μg/mL, LTA 10 μg/mL, MDP 100 μg/mL, hsps 10 μg/mL
human macrophages [5] = assay: IL-12 p70 ELISA of macrophage supernatants; assay type: cell-based; conditions: LPS 1 μg/mL, MDP 100 μg/mL
STAT1 = assay: Phosphorylation of macrophage STAT1; assay type: cell-based, human
macrophages = assay type: cell-based, human
human macrophages [6] = assay: IL-12 p40 ELISA of macrophage supernatants; assay type: cell-based; conditions: LPS 1 μg/mL, MDP 100 μg/mL
dendritic cells = assay: I-TAC production by dendritic cells (ELISA); conditions: 24 hours after exposure to LPS or lipoteichoic acid

## IL-12: cytokine incubated with macrophages; exogenous IL-12 therapy in cited studies
Human macrophages [1]
  induction of the TLR4-induced core cluster of genes by cytokines: failed to induce comparable gene expression changes
Mycobacterial infection
  clearance of mycobacterial infection in normal mice: enhances the ability of normal mice to clear a mycobacterial infection
[2]
  clinical outcome in patients with infections refractory to antibiotics and supplemental IFN-γ: rescued two patients

## IFN-γ: IFN-γ from R&D Systems
Human macrophages [1]
  induction of the TLR4-induced core cluster of genes by cytokines: sufficient to induce the expression of the TLR4-induced core cluster of genes
Human macrophages [3]
  I-TAC production by macrophages in response to IFNs: sufficient to induce I-TAC production

## Rhodobacter sphaeroides lipid A [RSLA]
TLR-4
  production of TNF-alpha by hsp70-stimulated macrophages after antagonist pretreatment: inhibits

## lipoteichoic acid [LTA]
Human macrophages [4]
  induction of the macrophage activation program (gene expression changes): induced the majority of the activation program
Human macrophages [1]
  induction of the cluster of nine genes specific to Gram-positive bacteria: insufficient to induce this small cluster of genes
  expression pattern of the 101 genes differentially regulated by Gram-negative versus Gram-positive bacteria: induced gene expression changes similar to the Gram-positive organisms
Human macrophages [3]
  I-TAC production by macrophages in response to bacterial components: not

## lipopolysaccharide [LPS]
Human macrophages [4]
  induction of the macrophage activation program (gene expression changes): induced the majority of the activation program
Human macrophages [5]
  IL-12 p70 production by macrophages in response to bacterial components: stimulated p70 production
STAT1
  phosphorylation of macrophage STAT1: observed
Human macrophages [1]
  gene expression changes compared with whole Gram-negative bacteria: less robust in magnitude and duration
  expression pattern of the 101 genes differentially regulated by Gram-negative versus Gram-positive bacteria: recapitulated the expression pattern of the 101 genes
macrophages; LPS titration
  endotoxin levels that did not stimulate production of either cytokine (TNF-alpha, IL-12 p40): lower than 1.4 Eu/mL
  endotoxin required to elicit IL-12 p40 relative to TNF-alpha: Roughly 100 fold
Human macrophages [6]
  IL-12 p40 secretion by macrophages: elicited
Human macrophages [3]; 24 hours after exposure to LPS or lipoteichoic acid
  maximum level of I-TAC secretion, macrophages: 2.8 ng/mL
Human macrophages [3]
  I-TAC production by macrophages in response to bacterial components: induced
Dendritic cells
  maximum level of I-TAC secretion, dendritic cells: 59 ng/mL

## CC(=O)N[C@H]1C(O)O[C@H](CO)[C@@H](O)[C@@H]1O[C@H](C)C(=O)N[C@@H](C)C(=O)N[C@H](CCC(=O)O)C(N)=O (mixture of isomers) [MDP, muramyl dipeptide]
Human macrophages [4]
  induction of the macrophage activation program (gene expression changes): induced the majority of the activation program
Human macrophages [5]
  IL-12 p70 production by macrophages in response to bacterial components: did not
Human macrophages [1]
  induction of the cluster of nine genes specific to Gram-positive bacteria: insufficient to induce this small cluster of genes
  expression pattern of the 101 genes differentially regulated by Gram-negative versus Gram-positive bacteria: induced gene expression changes similar to the Gram-positive organisms
Human macrophages [6]
  IL-12 p40 secretion by macrophages: elicited
Human macrophages [3]
  I-TAC production by macrophages in response to bacterial components: not

## IFN-α
Human macrophages [1]
  induction of the TLR4-induced core cluster of genes by cytokines: sufficient to induce the expression of the TLR4-induced core cluster of genes
Human macrophages [3]
  I-TAC production by macrophages in response to IFNs: sufficient to induce I-TAC production

## formyl-methionine-leucine-phenylalanine [formyl-MetLeuPhe]
Human macrophages [1]
  expression pattern of the 101 genes differentially regulated by Gram-negative versus Gram-positive bacteria: failed to induce expression changes that were characteristic of either class of bacteria

## monophosphoryl lipid A
Human macrophages [4]
  induction of the macrophage activation program (gene expression changes): failed to induce this set of gene expression changes

## hsp70: Recombinant mycobacterial heat shock protein from StressGen
Human macrophages [4]
  induction of the macrophage activation program (gene expression changes): induced the majority of the activation program
macrophages; 0.06 Eu/mL = 13 pg/mL LPS, 10 μg/mL hsp 70
  cytokine elicited relative to the endotoxin-equivalent amount of LPS: 3-6 times

B1: IL-10: cytokine incubated with macrophages (protein, UniProt P22301 19-178, looked up)
Interleukin-10: SPGQGTQSENSCTHFPGNLPNMLRDLRDAFSRVKTFFQMKDQLDNLLLKESLLEDFKGYLGCQALSEMIQFYLEEVMPQAENQDPDIKAHVNSLGENLKTLRLRLRRCHRFLPCENKSKAVEQVKNAFNKLQEKGIYKAMSEFDIFINYIEAYMTMKIRN
Human macrophages [1]
  induction of the TLR4-induced core cluster of genes by cytokines: failed to induce comparable gene expression changes
